According to patent publication US9532990B2 (Zhejiang DTRM Biopharma Co. Ltd., priority 2014, dated 2017):
Like-named read-outs stand apart in the source and are kept apart here.

Target: BTK wild type (Homo sapiens (Human), UniProt Q06187)
Experiment: Inhibition assay of BTK kinase activity (HTRF)
Assay type: biochemical
Experimental: Inhibition Assay of BTK Kinase Activity:
The enzyme reaction mixture of BTK wild type standard HTRF assay contained 1 nM BTK wild type, 1 μM biotin-TK1 peptide, and 30 μM ATP in a buffer. The enzyme reaction were carried out at room temperature for 60 minutes. […] The plates were incubated at room temperature for 60 minutes and then read in the Envision plate reader.

[1] = all compounds with IC50 of less 10 nM, read-out: IC50 (BTK)

Chain of BTK wild type (Q06187 whole entry): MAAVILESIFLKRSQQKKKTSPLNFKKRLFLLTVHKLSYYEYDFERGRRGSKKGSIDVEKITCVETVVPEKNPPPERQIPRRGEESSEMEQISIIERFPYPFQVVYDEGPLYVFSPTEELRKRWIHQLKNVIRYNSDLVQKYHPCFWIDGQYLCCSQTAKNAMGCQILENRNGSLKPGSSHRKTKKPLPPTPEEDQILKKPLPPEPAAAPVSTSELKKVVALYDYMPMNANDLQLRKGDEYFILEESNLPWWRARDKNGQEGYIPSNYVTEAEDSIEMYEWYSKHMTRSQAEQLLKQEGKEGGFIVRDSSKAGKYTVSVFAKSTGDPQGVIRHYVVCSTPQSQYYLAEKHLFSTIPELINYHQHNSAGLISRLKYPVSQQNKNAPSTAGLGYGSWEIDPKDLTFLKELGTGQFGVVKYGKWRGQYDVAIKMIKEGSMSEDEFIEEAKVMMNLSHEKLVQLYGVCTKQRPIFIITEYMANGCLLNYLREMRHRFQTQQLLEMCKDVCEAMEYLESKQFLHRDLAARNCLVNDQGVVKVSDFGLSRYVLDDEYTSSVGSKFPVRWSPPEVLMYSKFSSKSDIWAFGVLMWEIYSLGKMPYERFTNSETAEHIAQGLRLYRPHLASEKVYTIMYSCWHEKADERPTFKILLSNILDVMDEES

Row | SMILES | IC50 (read-out: BTK IC50) | IC50 [1]
1 | Nc1ncnc2c1c(-c1ccc(Oc3c(F)c(F)cc(F)c3F)cc1F)nn2[C@@H]1CCN(C(=O)/C=C/c2ccccc2)C1 [Compound 92, (E)-1-((R)-3-(4-amino-3-(2-fluoro-4-(2,3,5,6-tetrafluorophenoxy)phenyl)-1H-pyrazolo[3,4-d]pyrimidin-1-yl)pyrrolidin-1-yl)-3-phenylprop-2-en-1-one] | 2.4 µM | –
2 | C=CC(=O)N1CCC(n2nc(-c3ccc(Oc4cccc(F)c4)cc3F)c3c(N)ncnc32)C1 (stereo not shown) [Compound 15, 1-(3-(4-amino-3-(2-fluoro-4-(3-fluorophenoxy)phenyl)-1H-pyrazolo[3,4-d]pyrimidin-1-yl)pyrrolidin-1-yl)prop-2-en-1-one] | 0.003 µM | < 0.01 µM
3 | Nc1ncnc2c1c(-c1ccc(Oc3c(F)c(F)cc(F)c3F)cc1F)nn2C1CCCN(C(=O)CC(=O)C2CC2)C1 (stereo not shown) [Compound 67, 1-(3-(4-amino-3-(2-fluoro-4-(2,3,5,6-tetrafluorophenoxy)phenyl)-1H-pyrazolo[3,4-d]pyrimidin-1-yl)piperidin-1-yl)-3-cyclopropylpropane-1,3-dione] | 0.586 µM | –
4 | C/C=C/C(=O)N1CC[C@@H](n2nc(-c3ccc(Oc4c(F)c(F)cc(F)c4F)cc3F)c3c(N)ncnc32)C1 [Compound 104, (E)-1-((R)-3-(4-amino-3-(2-fluoro-4-(2,3,5,6-tetrafluorophenoxy)phenyl)-1H-pyrazolo[3,4-d]pyrimidin-1-yl)pyrrolidin-1-yl)but-2-en-1-one] | 0.107 µM | –
5 | C=CC(=O)N1CC[C@@H](n2nc(-c3ccc(Oc4ccnc(C(=O)NC)c4)cc3F)c3c(N)ncnc32)C1 [Compound 88, 4-(4-(1-((R)-1-acryloylpyrrolidin-3-yl)-4-amino-1H-pyrazolo[3,4-d]pyrimidin-3-yl)-3-fluorophenoxy)-N-methylpicolinamide] | 0.011 µM | –
6 | C=C(CO)C(=O)N1CCCC(n2nc(-c3ccc(Oc4c(F)c(F)cc(F)c4F)cc3F)c3c(N)ncnc32)C1 (stereo not shown) [Compound 50, 1-(3-(4-amino-3-(2-fluoro-4-(2,3,5,6-tetrafluorophenoxy)phenyl)-1H-pyrazolo[3,4-d]pyrimidin-1-yl)piperidin-1-yl)-2-(hydroxymethyl)prop-2-en-1-one] | 0.087 µM | –
7 | CC(C)C(=O)C(=O)N1CC[C@@H](n2nc(-c3ccc(Oc4c(F)c(F)cc(F)c4F)cc3F)c3c(N)ncnc32)C1 [Compound 79, 1-((R)-3-(4-amino-3-(2-fluoro-4-(2,3,5,6-tetrafluorophenoxy)phenyl)-1H-pyrazolo[3,4-d]pyrimidin-1-yl)pyrrolidin-1-yl)-3-methylbutane-1,2-dione] | 1.66 µM | –
8 | Nc1ncnc2c1c(-c1ccc(Oc3c(F)c(F)cc(F)c3F)cc1F)nn2[C@@H]1CCN(C(=O)C(=O)C(F)(F)F)C1 [Compound 77, 1-((R)-3-(4-amino-3-(2-fluoro-4-(2,3,5,6-tetrafluorophenoxy)phenyl)-1H-pyrazolo[3,4-d]pyrimidin-1-yl)pyrrolidin-1-yl)-3,3,3-trifluoropropane-1,2-dione] | 0.201 µM | –
9 | C=C(C(=O)N1CCCC(n2nc(-c3ccc(Oc4c(F)c(F)cc(F)c4F)cc3F)c3c(N)ncnc32)C1)C(F)(F)F (stereo not shown) [Compound 64, 1-(3-(4-amino-3-(2-fluoro-4-(2,3,5,6-tetrafluorophenoxy)phenyl)-1H-pyrazolo[3,4-d]pyrimidin-1-yl)piperidin-1-yl)-2-(trifluoromethyl)prop-2-en-1-one] | 0.006 µM | –
10 | CCOC(=O)/C=C/CNC(=O)N1CCCC(n2nc(-c3ccc(Oc4c(F)c(F)cc(F)c4F)cc3F)c3c(N)ncnc32)C1 (stereo not shown) [Compound 74, (E)-ethyl 4-(3-(4-amino-3-(2-fluoro-4-(2,3,5,6-tetrafluorophenoxy)phenyl)-1H-pyrazolo[3,4-d]pyrimidin-1-yl)piperidine-1-carboxamido)but-2-enoate] | 0.003 µM | < 0.01 µM
11 | C=C(C#N)CN1CCCC(n2nc(-c3ccc(Oc4c(F)c(F)cc(F)c4F)cc3F)c3c(N)ncnc32)C1 (stereo not shown) [Compound 70, 2-((3-(4-amino-3-(2-fluoro-4-(2,3,5,6-tetrafluorophenoxy)phenyl)-1H-pyrazolo[3,4-d]pyrimidin-1-yl)piperidin-1-yl)methyl)acrylonitrile] | 0.017 µM | –
12 | CC(C)(C)OC(=O)N1CCCC(n2nc(-c3ccc(Oc4ccccc4[N+](=O)[O-])cc3F)c3c(N)ncnc32)C1 (stereo not shown) [Compound 10, tert-butyl 3-(4-amino-3-(2-fluoro-4-(2-nitrophenoxy)phenyl)-1H-pyrazolo[3,4-d]pyrimidin-1-yl)piperidine-1-carboxylate] | 1.97 µM | –
13 | C=CC(=O)N1CC[C@@H](n2nc(-c3ccc(Oc4ccnc5cc(OC)c(OC)cc45)cc3F)c3c(N)ncnc32)C1 [Compound 89, 1-((R)-3-(4-amino-3-(4-(6,7-dimethoxyquinolin-4-yloxy)-2-fluorophenyl)-1H-pyrazolo[3,4-d]pyrimidin-1-yl)pyrrolidin-1-yl)prop-2-en-1-one] | 0.025 µM | –
14 | Nc1ncnc2c1c(-c1ccc(Oc3c(F)c(F)cc(F)c3F)cc1F)nn2[C@@H]1CCN(C(=O)C(Cl)Cl)C1 [Compound 103, 1-((R)-3-(4-amino-3-(2-fluoro-4-(2,3,5,6-tetrafluorophenoxy)phenyl)-1H-pyrazolo[3,4-d]pyrimidin-1-yl)pyrrolidin-1-yl)-2,2-dichloroethanone] | 0.546 µM | –
15 | C=CC(=O)N1CC[C@@H](n2nc(-c3ccc(Oc4nccc(Cl)n4)cc3F)c3c(N)ncnc32)C1 [Compound 96, 1-((R)-3-(4-amino-3-(4-(4-chloropyrimidin-2-yloxy)-2-fluorophenyl)-1H-pyrazolo[3,4-d]pyrimidin-1-yl)pyrrolidin-1-yl)prop-2-en-1-one] | 0.013 µM | –
16 | C=CC(=O)N1CCC[C@H](n2nc(-c3ccc(Oc4c(F)c(F)cc(F)c4F)cc3F)c3c(N)ncnc32)C1 [Compound 34, 1-((S)-3-(4-amino-3-(2-fluoro-4-(2,3,5,6-tetrafluorophenoxy)phenyl)-1H-pyrazolo[3,4-d]pyrimidin-1-yl)piperidin-1-yl)prop-2-en-1-one] | 0.023 µM | –
17 | C=CC(=O)NCCn1nc(-c2ccc(Oc3c(F)c(F)cc(F)c3F)cc2F)c2c(N)ncnc21 [Compound 82, N-(2-(4-amino-3-(2-fluoro-4-(2,3,5,6-tetrafluorophenoxy)phenyl)-1H-pyrazolo[3,4-d]pyrimidin-1-yl)ethyl)acrylamide] | 0.025 µM | –
18 | Nc1ncnc2c1c(-c1ccc(Oc3c(F)c(F)cc(F)c3F)cc1F)nn2[C@@H]1CCN(C(=O)CCCl)C1 [Compound 58, 1-((R)-3-(4-amino-3-(2-fluoro-4-(2,3,5,6-tetrafluorophenoxy)phenyl)-1H-pyrazolo[3,4-d]pyrimidin-1-yl)pyrrolidin-1-yl)-3-chloropropan-1-one] | 0.148 µM | –
19 | C=CC(=O)N1CCC(n2nc(-c3ccc(Oc4c(F)c(F)cc(F)c4F)cc3F)c3c(N)ncnc32)CC1 [Compound 27, 1-(4-(4-amino-3-(2-fluoro-4-(2,3,5,6-tetrafluorophenoxy)phenyl)-1H-pyrazolo[3,4-d]pyrimidin-1-yl)piperidin-1-yl)prop-2-en-1-one] | 0.223 µM | –
20 | CNC(=O)CN1CCCC(n2nc(-c3ccc(Oc4c(F)c(F)cc(F)c4F)cc3F)c3c(N)ncnc32)C1 (stereo not shown) [Compound 56, 2-(3-(4-amino-3-(2-fluoro-4-(2,3,5,6-tetrafluorophenoxy)phenyl)-1H-pyrazolo[3,4-d]pyrimidin-1-yl)piperidin-1-yl)-N-methylacetamide] | 0.365 µM | –
21 | C=CC(=O)N1CC[C@@H](n2nc(-c3ccc(Oc4nccc(C(F)(F)F)n4)cc3F)c3c(N)ncnc32)C1 [Compound 97, 1-((R)-3-(4-amino-3-(2-fluoro-4-(4-(trifluoromethyl)pyrimidin-2-yloxy)phenyl)-1H-pyrazolo[3,4-d]pyrimidin-1-yl)pyrrolidin-1-yl)prop-2-en-1-one] | 0.006 µM | –
22 | N=C(N)NC(=O)N1CCCC(n2nc(-c3ccc(Oc4c(F)c(F)cc(F)c4F)cc3F)c3c(N)ncnc32)C1 (stereo not shown) [Compound 43, N-[3-[4-amino-3-[2-fluoro-4-(2,3,5,6-trifluorophenoxy)phenyl]-1H-pyrazolo[3,4-d]pyrimidin-1-yl]piperidine-1-carbonyl] formamidine] | 0.131 µM | –
23 | Nc1ncnc2c1c(-c1ccc(Oc3c(F)c(F)cc(F)c3F)cc1F)nn2C1CCCC(N2C(=O)C=CC2=O)C1 (stereo not shown) [Compound 36, 1-(3-(4-amino-3-(2-fluoro-4-(2,3,5,6-tetrafluorophenoxy)phenyl)-1H-pyrazolo[3,4-d]pyrimidin-1-yl)cyclohexyl)-1H-pyrrole-2,5-dione] | 0.593 µM | –
24 | C=CC(=O)N[C@@H]1CC[C@@H](n2nc(-c3ccc(Oc4c(F)c(F)cc(F)c4F)cc3F)c3c(N)ncnc32)C1 [Compound 25, N-((1r,3r)-3-(4-amino-3-(2-fluoro-4-(2,3,5,6-tetrafluorophenoxy)phenyl)-1H-pyrazolo[3,4-d]pyrimidin-1-yl)cyclopentyl)acrylamide] | 0.017 µM | –
25 | C=CC(=O)N[C@H]1CC[C@@H](n2nc(-c3ccc(Oc4cccc(F)c4)cc3F)c3c(N)ncnc32)C1 [Compound 17, N-((1s,3r)-3-(4-amino-3-(2-fluoro-4-(3-fluorophenoxy)phenyl)-1H-pyrazolo[3,4-d]pyrimidin-1-yl)cyclopentyl)acrylamide] | 0.004 µM | < 0.01 µM
26 | C=C(CN1CCCC(n2nc(-c3ccc(Oc4c(F)c(F)cc(F)c4F)cc3F)c3c(N)ncnc32)C1)C(=O)NC (stereo not shown) [Compound 69, 2-((3-(4-amino-3-(2-fluoro-4-(2,3,5,6-tetrafluorophenoxy)phenyl)-1H-pyrazolo[3,4-d]pyrimidin-1-yl)piperidin-1-yl)methyl)-N-methylacrylamide] | 0.052 µM | –
27 | C=CS(=O)(=O)N1CC[C@@H](n2nc(-c3ccc(Oc4c(F)c(F)cc(F)c4F)cc3F)c3c(N)ncnc32)C1 [Compound 116, 3-(2-fluoro-4-(2,3,5,6-tetrafluorophenoxy)phenyl)-1-((R)-1-(vinylsulfonyl)pyrrolidin-3-yl)-1H-pyrazolo[3,4-d]pyrimidin-4-amine] | 0.001 µM | < 0.01 µM
